The values below come from article PMC8973439, “From Fish Scale Gelatin to Tyrosinase Inhibitor: A Novel Peptides Screening Approach Application” (Frontiers in Nutrition, 2022).

One data set deals with Mushroom tyrosinase (Agaricus bisporus, UniProt C7FF04). The data set can be described thus: Tyrosinase inhibitory activity (L-DOPA oxidation, 475 nm). It counts as biochemical. Here is the method:
The determination of the tyrosinase inhibitory activity was made according to Uysal et al. ([26]). Sample solutions (50 μl) with the appropriate concentration were reacted with 50 μl of 200 mM pH 6.8 phosphate buffer saline (PBS) solution and 50 μl of tyrosinase at room temperature for 15 mins. Then, 50 μl of 2.5 mM L-DOPA was added, and allowed to react at 30°C for 10 min. The absorbance (As) at 475 nm was finally measured with a microplate reader (Synergy H1, BioTek Co., Ltd., USA). Taking the reaction system without enzyme and sample as a blank.
4 ml of hydrolysis product (5 mg/ml) and 2 ml of mushroom tyrosinase (10 U/ml) were incubated for 1 h at 37°C. Inactivated mushroom tyrosinase (heated in a boiling water bath for 10 mins) was also prepared as a blank group.

For a further data set, the system named is B16F10 melanoma cells. The data set can be described thus: Cell viability of B16F10 melanoma cells (CCK-8). It counts as cell-based, murine. The following applies: 24 h. Here is the method:
(§1) B16F10 cells were kept in Dulbecco's modified eagle medium supplemented with 10% heat-inactivated fetal bovine serum, and cells were cultured at 37°C in an atmosphere with 5% CO2. These cells were then used for cell viability, tyrosinase inhibition and melanin content determination.
The previously described cell counting kit-8 (CCK-8) assay was used to assess cell viability ([30]). The cells were incubated in a 96-well plate with 5 × 10^4 cells per well in a 5% humid CO2 atmosphere at 37°C for 24 h. […] The cells were re-incubated for 24 h under the same conditions. The cells were then treated with the CCK-8 reagent and incubated at 37°C for 1 h. Cell viability is calculated by reading the absorbance value at 450 nm. The calculation formula is shown below. (2) Cell viability/%=(As-Ab)/(Ac-Ab)×100% where, As is the absorbance of experimental wells (medium containing cells, CCK-8, sample to be tested); Ac is the absorbance of control well (medium containing cells, CCK-8, no sample to be tested); Ab is the absorbance of blank wells (medium without cells and samples to be tested, CCK-8).

The subject of data set [1] is tyrosinase in B16F10 cells. The data set can be described thus: Tyrosinase activity in B16F10 melanoma cells. The settings on record: positive control, 0.75 mg/ml, 24 h; lysate with 10 mM L-DOPA, 30 min 37°C, 450 nm. It counts as cell-based, murine.
Description: The tyrosinase inhibition was determined according to the method of Ullah et al. ([31]). B16F10 cells were seeded into 96-well plates at a rate of 5 × 10^4 cells per well and incubated at 37°C in a humid atmosphere of 5% CO2 for 24 h. […] (0, 0.1, 0.2, 0.4, 0.8 and 1.6 mg/ml), and re-incubated for 24 h under the same conditions. The cells were then washed with PBS buffer, lysed with lysate buffer [100 μl containing 50 mM PBS, 0.1 mM phenylmethanesulfonyl fluoride (5 μl) and Triton X-100 (5 μl)], and frozen at −80°C for 30 min. The cell lysate was then centrifuged at 12,000 rpm at 4°C for 30 min and transferred to a 96-well plate with a total volume of 100 μl (80 μl lysate supernatant and 20 μl 10 mM L-DOPA) and incubated for 30 min at 37°C. The absorbance was measured at 450 nm using an enzyme-linked immunosorbent assay (ELISA) reader.
In data set [2] the test system is B16F10 melanoma cells (melanin content). The data set can be described thus: Melanin content in B16F10 melanoma cells. The data set is classed as cell-based, murine. The settings on record: positive control, 0.75 mg/ml; NaOH/10% DMSO lysis, 405 nm. The protocol: as §1
After cultivated according to the instructions above, the cells were digested with 0.25% trypsin when reached to 80–90% confluence to make a single cell suspension. Fresh culture medium was used to adjust the cell concentration to 1 × 10^6 cells/ml, 2 ml of which was inoculated in a 6-well culture plate for incubation overnight. When the cells adhered, the supernatant was discarded and the cells were rinsed with PBS once. 2 ml fresh culture medium was added again for incubation under CO2 for 48 h. The supernatant was discarded after the incubation, and the adhered cells were rinsed with PBS and then dispersed with trypsin. The dispersed cells were collected and centrifuged at 1,500 r/min for 10 min. […] Measured the optical density value of each well at 405 nm with a microplate reader, and calculated the melanin content ([32]). (3) Melanin content/%=(As-Ab)/(Ac-Ab)×100% where, As is the absorbance of experimental wells; Ac is the absorbance of control well; Ab is the absorbance of blank wells.

For the next data set, the target named is tyrosinase. The following applies: cited from earlier work. From the text: Studies have shown that peptides with lower MW tend to have higher functional activity ([38]). Therefore, peptides with MW ≤ 1,000 Da were selected from the 52 peptides obtained, and 16 peptides (shown in Table 3) were obtained for subsequent analysis. Section Amino Acid Composition and Molecular Weight Distribution of Hydrolysates introduced some amino acids that contribute to tyrosinase inhibition, such as Val, Ala, Leu, Ile, Arg, Phe, Cys, Ser, and Thr. According to the screening method from previous study ([10]), 16 peptides in Table 3 were counted for their tyrosinase inhibitory contribut ...

Where [3] appears, read: synthetic peptides (purity more than 95%), mushroom tyrosinase, 2.5 mM L-DOPA, 200 mM pH 6.8 PBS, preincubation 15 min room temperature, 10 min 30°C, 475 nm, three parallel tests, read-out: IC50 (tyrosinase inhibition).

Like-named read-outs stand apart in the source and are kept apart here. Where a SMILES comes first, the peptide text is derived from it.

Chain of Mushroom tyrosinase (C7FF04 1-392): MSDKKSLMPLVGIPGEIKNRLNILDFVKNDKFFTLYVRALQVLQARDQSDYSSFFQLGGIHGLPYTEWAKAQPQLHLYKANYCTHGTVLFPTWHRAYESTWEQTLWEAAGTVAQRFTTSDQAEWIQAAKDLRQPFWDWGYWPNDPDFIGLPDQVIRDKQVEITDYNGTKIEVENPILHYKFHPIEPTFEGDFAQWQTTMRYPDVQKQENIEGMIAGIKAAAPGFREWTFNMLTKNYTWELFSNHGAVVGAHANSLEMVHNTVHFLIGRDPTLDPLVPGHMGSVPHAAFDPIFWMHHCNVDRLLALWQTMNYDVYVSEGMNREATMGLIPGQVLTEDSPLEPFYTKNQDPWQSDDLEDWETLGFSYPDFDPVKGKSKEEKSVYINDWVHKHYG

With `CC(C)C[C@H](NC(=O)[C@H](Cc1ccccc1)NC(=O)CNC(=O)[C@H](CC(C)C)NC(=O)[C@@H](N)CC(=O)O)C(=O)N[C@@H](C)C(=O)N[C@@H](CCCNC(=N)N)C(=O)NCC(=O)N[C@@H](Cc1ccccc1)C(=O)O` (H-DLGFLARGF-OH), the IC50 (as a rule, the point on the concentration scale where inhibition reaches its midpoint) on Mushroom tyrosinase amounted to 3.09 mM. The “Cell viability, concentration dependence” value in the data set on B16F10 melanoma cells (0–1.6 mg/ml, CCK-8) is “cell survival rate gradually decreased”. For the same compound, the Cell viability with B16F10 melanoma cells (tested concentration range 0–1.6 mg/ml, CCK-8, 450 nm) was over 50%.
Consider `CC(C)C[C@H](NC(=O)[C@H](CC(=O)O)NC(=O)[C@@H](N)Cc1ccccc1)C(=O)NCC(=O)N[C@@H](Cc1ccccc1)C(=O)N[C@@H](CC(C)C)C(=O)N[C@@H](C)C(=O)N[C@@H](CCCNC(=N)N)C(=O)O` (H-FDLGFLAR-OH), for which the IC50 at Mushroom tyrosinase (setting [3]) came to 4 mM.
Still for that read-out and setting: in the case of `CC(C)C[C@H](NC(=O)[C@@H](NC(=O)[C@H](CC(C)C)NC(=O)[C@H](CCC(N)=O)NC(=O)[C@@H](N)Cc1c[nH]c2ccccc12)[C@@H](C)O)C(=O)O` [WQLTL] (H-WQLTL-OH) it was 3.86 mM; in that of `CC(C)[C@H](NC(=O)[C@H](CCC(=O)O)NC(=O)[C@H](CO)NC(=O)[C@@H](N)Cc1c[nH]c2ccccc12)C(=O)N[C@@H](Cc1ccccc1)C(=O)O` [WSEVF] (H-WSEVF-OH), 5.81 mM.
With `O=c1cc(CO)occ1O` [kojic acid], in data set [1], the “Tyrosinase inhibition rate in B16F10 cells” value was determined as 28.34%. The “Reduction of melanin content” value in data set [2] stood at 55.4%.
For “Phe-Pro-Tyr [FPY, from defatted walnut (Juglans regia L.) meal hydrolysate]”, the IC50 at tyrosinase (from defatted walnut (Juglans regia L.) meal hydrolysate, read-out: IC50 (tyrosinase inhibition)) is 3.22 ± 0.22 mM.
Turning to “RHAKF [from Chinese quince seed protein hydrolysate]”, the “IC50 (tyrosinase inhibition)” value at tyrosinase (from Chinese quince seed protein hydrolysate) was 1.15 mg/mL.
